Experiments:
[1] = molecular target: T1, STK16 (Homo sapiens, UniProt O75716); assay: KinomeScan; format: binding; conditions: read-out: % Control
T1 construct: purchased DiscoveRx (Fremont, CA)

[2] = molecular target: T2, mGlu1 (Homo sapiens, UniProt Q13255); assay: GPCR Profiler; format: cell-based
T2 construct: host or cells: Chem-1 cells expressing Gα15

[3] = molecular target: T3, RPS6KA4(Kin.Dom.1-N-terminal) (Homo sapiens, UniProt O75676); assay: KinomeScan; format: binding; conditions: read-out: % Control
T3 construct: RPS6KA4(Kin.Dom.1-N-terminal); purchased DiscoveRx (Fremont, CA)

[4] = molecular target: CSNK1G1 (Homo sapiens, UniProt Q9HCP0); assay: KinomeScan; format: binding; conditions: read-out: % Control
[5] = molecular target: T4, YES (Homo sapiens, UniProt P07947); assay: KinomeScan; format: binding; conditions: read-out: % Control
T4 construct: purchased DiscoveRx

[6] = molecular target: T5, STK39 (Homo sapiens, UniProt Q9UEW8); assay: KinomeScan; format: binding; conditions: read-out: % Control
T5 construct: purchased DiscoveRx (Fremont, CA)

[7] = molecular target: T6, TSH (Homo sapiens, UniProt P16473); assay: GPCR Profiler; format: cell-based
T6 construct: host or cells: Chem-1 cells with Gα15
T6 sequence (P16473 21-764): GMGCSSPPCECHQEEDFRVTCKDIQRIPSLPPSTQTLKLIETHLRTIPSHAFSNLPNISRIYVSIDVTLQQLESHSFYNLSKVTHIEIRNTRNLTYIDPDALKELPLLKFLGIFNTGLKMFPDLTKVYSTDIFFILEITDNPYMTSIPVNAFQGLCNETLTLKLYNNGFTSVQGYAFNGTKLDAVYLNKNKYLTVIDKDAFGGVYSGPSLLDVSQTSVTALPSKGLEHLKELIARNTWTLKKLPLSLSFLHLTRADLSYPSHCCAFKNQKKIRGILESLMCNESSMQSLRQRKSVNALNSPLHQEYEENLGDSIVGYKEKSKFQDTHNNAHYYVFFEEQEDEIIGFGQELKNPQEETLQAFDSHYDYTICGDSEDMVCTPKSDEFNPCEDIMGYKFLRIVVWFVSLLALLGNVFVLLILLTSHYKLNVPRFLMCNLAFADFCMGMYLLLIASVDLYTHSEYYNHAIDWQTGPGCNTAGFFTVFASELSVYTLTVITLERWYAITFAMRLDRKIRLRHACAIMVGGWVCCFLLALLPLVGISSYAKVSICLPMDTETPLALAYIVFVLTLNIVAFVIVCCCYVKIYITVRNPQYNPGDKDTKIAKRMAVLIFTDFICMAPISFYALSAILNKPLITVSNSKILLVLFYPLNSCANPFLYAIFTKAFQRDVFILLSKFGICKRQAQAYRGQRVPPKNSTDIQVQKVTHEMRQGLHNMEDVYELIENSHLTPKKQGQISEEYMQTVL

[8] = molecular target: T7, SRPK1 (Homo sapiens, UniProt Q96SB4); assay: KinomeScan; format: binding; conditions: read-out: % Control
T7 construct: purchased DiscoveRx (Fremont, CA)

[9] = molecular target: T8, JAK3(JH1domain-catalytic) (Homo sapiens, UniProt P52333); assay: KinomeScan; format: binding; conditions: read-out: % Control
T8 construct: JAK3(JH1domain-catalytic); purchased DiscoveRx (Fremont, CA)

[10] = molecular target: T9, FGFR3(G697C) (Homo sapiens, UniProt P22607, G697C); assay: KinomeScan; format: binding; conditions: read-out: % Control
T9 construct: purchased DiscoveRx (Fremont, CA)

[11] = molecular target: T10, V1A (Homo sapiens, UniProt P37288); assay: GPCR Profiler; format: cell-based
T10 construct: host or cells: Chem-1 cells with Gα15
T10 sequence (P37288 whole entry): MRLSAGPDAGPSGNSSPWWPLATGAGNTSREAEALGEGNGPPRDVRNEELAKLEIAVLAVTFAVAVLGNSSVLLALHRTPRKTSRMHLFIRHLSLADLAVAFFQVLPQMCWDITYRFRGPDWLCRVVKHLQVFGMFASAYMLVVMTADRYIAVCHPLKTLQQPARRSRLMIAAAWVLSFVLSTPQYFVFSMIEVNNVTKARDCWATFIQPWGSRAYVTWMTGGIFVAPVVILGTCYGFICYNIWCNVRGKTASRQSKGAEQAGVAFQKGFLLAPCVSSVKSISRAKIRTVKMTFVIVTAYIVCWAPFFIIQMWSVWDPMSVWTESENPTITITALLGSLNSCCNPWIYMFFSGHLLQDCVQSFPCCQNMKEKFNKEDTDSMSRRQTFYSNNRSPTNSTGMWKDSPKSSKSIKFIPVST

[12] = molecular target: T11, EGFR (Homo sapiens, UniProt P00533); assay: KinomeScan; format: binding; conditions: read-out: % Control
T11 construct: purchased DiscoveRx (Fremont, CA), KinomeScan service

[13] = molecular target: T12, TTK (Homo sapiens, UniProt P33981); assay: KinomeScan; format: binding; conditions: read-out: % Control
T12 construct: purchased DiscoveRx

[14] = molecular target: T13, EPHA5 (Homo sapiens, UniProt P54756); assay: KinomeScan; format: binding; conditions: read-out: % Control
T13 construct: purchased DiscoveRx (Fremont, CA)

[15] = molecular target: T14, PKAC-alpha (Homo sapiens, UniProt P17612); assay: KinomeScan; format: binding; conditions: read-out: % Control
T14 construct: purchased DiscoveRx (Fremont, CA)

[16] = molecular target: T15, MLK2 (Homo sapiens, UniProt Q02779); assay: KinomeScan; format: binding; conditions: read-out: % Control
T15 construct: purchased DiscoveRx

[17] = molecular target: T16, EPHA6 (Homo sapiens, UniProt Q9UF33); assay: KinomeScan; format: binding; conditions: read-out: % Control
T16 construct: purchased DiscoveRx (Fremont, CA)

[18] = molecular target: T17, EPHA7 (Homo sapiens, UniProt Q15375); assay: KinomeScan; format: binding; conditions: read-out: % Control
T17 construct: purchased DiscoveRx (Fremont, CA)

[19] = molecular target: T18, FP (Homo sapiens, UniProt P43088); assay: GPCR Profiler; format: cell-based
T18 construct: host or cells: Chem-1 cells expressing Gα15
T18 sequence (P43088 whole entry): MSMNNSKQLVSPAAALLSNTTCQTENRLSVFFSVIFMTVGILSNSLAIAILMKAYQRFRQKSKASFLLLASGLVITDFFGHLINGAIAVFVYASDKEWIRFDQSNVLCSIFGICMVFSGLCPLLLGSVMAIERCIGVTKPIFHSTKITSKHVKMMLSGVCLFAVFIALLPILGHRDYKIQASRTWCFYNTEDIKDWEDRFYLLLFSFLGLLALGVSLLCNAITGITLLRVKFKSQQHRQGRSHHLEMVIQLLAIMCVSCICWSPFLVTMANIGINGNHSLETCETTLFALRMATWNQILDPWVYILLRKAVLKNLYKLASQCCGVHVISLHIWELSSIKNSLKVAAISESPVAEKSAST

[20] = molecular target: T19, DP (Homo sapiens, UniProt Q13258); assay: GPCR Profiler; format: cell-based
T19 construct: host or cells: Chem-1 cells expressing Gα15
T19 sequence (Q13258 whole entry): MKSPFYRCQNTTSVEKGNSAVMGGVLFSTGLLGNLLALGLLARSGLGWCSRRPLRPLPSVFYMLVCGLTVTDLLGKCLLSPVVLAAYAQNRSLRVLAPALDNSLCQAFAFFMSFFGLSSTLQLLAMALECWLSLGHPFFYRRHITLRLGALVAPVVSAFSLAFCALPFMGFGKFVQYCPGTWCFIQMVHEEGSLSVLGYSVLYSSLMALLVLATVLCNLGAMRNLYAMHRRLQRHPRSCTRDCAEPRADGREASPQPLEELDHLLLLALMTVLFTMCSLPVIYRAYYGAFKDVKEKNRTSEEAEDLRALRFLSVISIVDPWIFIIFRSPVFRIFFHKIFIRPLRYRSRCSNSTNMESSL

[21] = molecular target: T20, HIPK4 (Homo sapiens, UniProt Q8NE63); assay: KinomeScan; format: binding; conditions: read-out: % Control
T20 construct: purchased DiscoveRx (Fremont, CA)

[22] = molecular target: T21, GABAB1b (Homo sapiens, UniProt Q9UBS5); assay: GPCR Profiler; format: cell-based
T21 construct: host or cells: Chem-1 cells expressing Gα15
T21 sequence (Q9UBS5 1-844 isoform Q9UBS5-2): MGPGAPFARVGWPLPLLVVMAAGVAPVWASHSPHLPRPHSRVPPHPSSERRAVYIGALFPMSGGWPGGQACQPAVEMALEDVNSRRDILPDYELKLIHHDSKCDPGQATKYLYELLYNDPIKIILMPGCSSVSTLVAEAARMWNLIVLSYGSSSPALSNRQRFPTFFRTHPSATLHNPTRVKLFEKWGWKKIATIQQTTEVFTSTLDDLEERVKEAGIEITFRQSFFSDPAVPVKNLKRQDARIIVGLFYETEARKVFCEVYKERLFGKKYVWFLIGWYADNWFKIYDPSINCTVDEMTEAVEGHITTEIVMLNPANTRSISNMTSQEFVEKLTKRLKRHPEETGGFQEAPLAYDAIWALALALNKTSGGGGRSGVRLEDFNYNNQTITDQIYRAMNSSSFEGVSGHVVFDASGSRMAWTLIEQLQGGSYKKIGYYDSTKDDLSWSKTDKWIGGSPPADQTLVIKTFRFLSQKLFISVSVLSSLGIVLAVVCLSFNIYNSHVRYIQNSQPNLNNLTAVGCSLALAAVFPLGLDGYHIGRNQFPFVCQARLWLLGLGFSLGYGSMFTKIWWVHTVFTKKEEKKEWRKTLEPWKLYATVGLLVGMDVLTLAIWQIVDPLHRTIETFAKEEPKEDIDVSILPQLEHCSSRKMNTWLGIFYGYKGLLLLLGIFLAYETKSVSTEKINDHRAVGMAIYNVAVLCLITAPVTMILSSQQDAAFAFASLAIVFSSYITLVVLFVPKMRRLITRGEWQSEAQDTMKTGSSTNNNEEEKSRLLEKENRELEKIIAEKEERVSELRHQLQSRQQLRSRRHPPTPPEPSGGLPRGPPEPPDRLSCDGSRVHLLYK
T21 sequence (O75899 42-941 partner): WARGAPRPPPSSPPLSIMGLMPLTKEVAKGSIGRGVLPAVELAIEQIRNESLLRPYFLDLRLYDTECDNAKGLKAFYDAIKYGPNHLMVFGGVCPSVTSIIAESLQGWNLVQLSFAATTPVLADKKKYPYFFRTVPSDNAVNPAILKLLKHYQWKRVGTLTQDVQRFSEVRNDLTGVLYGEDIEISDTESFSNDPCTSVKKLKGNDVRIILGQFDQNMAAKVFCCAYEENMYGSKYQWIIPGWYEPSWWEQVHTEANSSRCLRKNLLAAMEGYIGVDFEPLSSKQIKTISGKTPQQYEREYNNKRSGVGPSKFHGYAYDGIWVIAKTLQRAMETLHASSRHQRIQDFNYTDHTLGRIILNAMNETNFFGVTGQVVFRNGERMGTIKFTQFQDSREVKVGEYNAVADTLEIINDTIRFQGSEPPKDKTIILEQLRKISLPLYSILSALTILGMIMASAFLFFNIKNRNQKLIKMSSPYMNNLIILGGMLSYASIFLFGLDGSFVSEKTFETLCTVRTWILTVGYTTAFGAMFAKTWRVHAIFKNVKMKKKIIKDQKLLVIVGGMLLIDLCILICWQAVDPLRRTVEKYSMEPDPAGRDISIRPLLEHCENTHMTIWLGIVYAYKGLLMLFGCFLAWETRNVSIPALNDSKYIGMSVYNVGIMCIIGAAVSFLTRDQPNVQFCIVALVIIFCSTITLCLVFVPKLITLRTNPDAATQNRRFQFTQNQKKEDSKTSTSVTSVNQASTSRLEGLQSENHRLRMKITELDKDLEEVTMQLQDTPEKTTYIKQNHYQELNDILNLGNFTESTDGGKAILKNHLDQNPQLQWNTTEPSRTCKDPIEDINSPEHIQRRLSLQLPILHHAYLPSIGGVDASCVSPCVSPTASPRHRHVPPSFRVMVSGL

[23] = molecular target: T22, OX1 (Homo sapiens, UniProt O43613); assay: GPCR Profiler; format: cell-based
T22 construct: host or cells: Chem-1 cells expressing Gα15
T22 sequence (O43613 whole entry): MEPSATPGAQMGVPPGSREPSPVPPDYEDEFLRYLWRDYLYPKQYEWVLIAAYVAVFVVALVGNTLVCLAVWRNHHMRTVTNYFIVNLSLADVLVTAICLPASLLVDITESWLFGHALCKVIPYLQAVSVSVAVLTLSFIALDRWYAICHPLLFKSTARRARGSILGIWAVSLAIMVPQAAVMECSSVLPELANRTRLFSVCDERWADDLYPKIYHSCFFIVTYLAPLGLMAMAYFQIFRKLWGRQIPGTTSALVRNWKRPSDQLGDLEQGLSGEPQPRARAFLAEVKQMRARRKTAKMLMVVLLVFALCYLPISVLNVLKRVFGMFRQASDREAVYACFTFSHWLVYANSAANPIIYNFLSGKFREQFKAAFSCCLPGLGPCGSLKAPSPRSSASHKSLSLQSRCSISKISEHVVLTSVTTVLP

[24] = molecular target: T23, PIK3CA(E545K) (Homo sapiens, UniProt P42336, E545K); assay: KinomeScan; format: binding; conditions: read-out: % Control
T23 construct: purchased DiscoveRx (Fremont, CA)

[25] = molecular target: T24, D2 (Homo sapiens, UniProt P14416); assay: GPCR Profiler; format: cell-based
T24 construct: host or cells: Chem-1 cells with Gα15
T24 sequence (P14416 whole entry): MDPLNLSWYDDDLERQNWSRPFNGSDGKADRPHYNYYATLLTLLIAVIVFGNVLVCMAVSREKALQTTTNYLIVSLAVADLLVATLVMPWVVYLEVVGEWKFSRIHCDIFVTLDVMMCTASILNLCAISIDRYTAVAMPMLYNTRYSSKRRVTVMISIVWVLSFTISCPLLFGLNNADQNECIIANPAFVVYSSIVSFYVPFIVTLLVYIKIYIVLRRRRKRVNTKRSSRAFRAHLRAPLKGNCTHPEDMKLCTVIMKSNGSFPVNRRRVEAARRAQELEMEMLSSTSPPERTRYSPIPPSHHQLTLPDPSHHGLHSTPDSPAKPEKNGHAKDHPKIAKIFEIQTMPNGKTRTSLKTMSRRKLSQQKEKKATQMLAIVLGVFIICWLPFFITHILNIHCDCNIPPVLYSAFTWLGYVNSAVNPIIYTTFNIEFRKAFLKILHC

[26] = molecular target: T25, PAK2 (Homo sapiens, UniProt Q13177); assay: KinomeScan; format: binding; conditions: read-out: % Control
T25 construct: purchased DiscoveRx

[27] = molecular target: T26, PRKCH (Homo sapiens, UniProt P24723); assay: KinomeScan; format: binding; conditions: read-out: % Control
T26 construct: purchased DiscoveRx (Fremont, CA)

[28] = molecular target: CSNK2A1 (Homo sapiens, UniProt P68400); assay: KinomeScan; format: binding; conditions: read-out: % Control
[29] = test system: FLT3(ITD); assay: KinomeScan; format: binding; conditions: 10 uM
[30] = molecular target: T27, SgK110 (Homo sapiens, UniProt P0C264); assay: KinomeScan; format: binding; conditions: read-out: % Control
T27 construct: purchased DiscoveRx (Fremont, CA)

[31] = molecular target: T28, p38-beta (Homo sapiens, UniProt Q15759); assay: KinomeScan; format: binding; conditions: read-out: % Control
T28 construct: purchased DiscoveRx

[32] = molecular target: T29, PFPK5(P. falciparum) (Plasmodium falciparum, UniProt P61075); assay: KinomeScan; format: binding; conditions: read-out: % Control
T29 construct: purchased DiscoveRx (Fremont, CA)

[33] = molecular target: T30, ERN1 (Homo sapiens, UniProt O75460); assay: KinomeScan; format: binding; conditions: read-out: % Control
T30 construct: purchased DiscoveRx (Fremont, CA)

[34] = molecular target: T31, BLY1 (Homo sapiens, UniProt Q15722); assay: GPCR Profiler; format: cell-based
T31 construct: host or cells: Chem-1 cells with promiscuous Gα15
T31 sequence (Q15722 whole entry): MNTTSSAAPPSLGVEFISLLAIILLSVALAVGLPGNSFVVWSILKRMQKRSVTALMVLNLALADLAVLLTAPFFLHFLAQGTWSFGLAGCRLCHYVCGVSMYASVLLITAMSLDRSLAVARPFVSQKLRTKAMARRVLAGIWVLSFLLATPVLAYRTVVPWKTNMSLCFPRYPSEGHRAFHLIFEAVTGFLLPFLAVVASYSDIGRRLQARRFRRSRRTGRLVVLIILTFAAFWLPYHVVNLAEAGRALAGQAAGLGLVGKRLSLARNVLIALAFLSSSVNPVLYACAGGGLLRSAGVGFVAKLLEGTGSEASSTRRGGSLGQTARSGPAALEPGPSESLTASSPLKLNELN

[35] = molecular target: T32, HIPK3 (Homo sapiens, UniProt Q9H422); assay: KinomeScan; format: binding; conditions: read-out: % Control
T32 construct: purchased DiscoveRx (Fremont, CA)

[36] = molecular target: T33, SRMS (Homo sapiens, UniProt Q9H3Y6); assay: KinomeScan; format: binding; conditions: read-out: % Control
T33 construct: purchased DiscoveRx (Fremont, CA)

## CCc1ccc2c(c1)C1(NN=C(c3cccc4ccccc34)S1)C(=O)N2 (stereo not drawn) [OGM1, 5-ethyl-5′-naphthalen-1-ylspiro[1H-indole-3,2′-3H-1,3,4-thiadiazole]-2-one]
[1]
  remaining binding at 10 µM: 88%
[2]; 10 uM
  Antagonism: −12.7
[2]; 12.5 uM
  Agonism: 1.1
[3]
  remaining binding at 10 µM: 92%
[4]
  remaining binding at 10 µM: 82%
[5]
  remaining binding at 10 µM: 100%
[6]
  remaining binding at 10 µM: 59%
[7]; 10 uM
  Antagonism: 5.9
[7]; 12.5 uM
  Agonism: −0.1
[8]
  remaining binding at 10 µM: 77%
[9]
  remaining binding at 10 µM: 84%
[10]
  remaining binding at 10 µM: 99%
[11]; 10 uM
  Antagonism: 12.3
[11]; 12.5 uM
  Agonism: 0.1
[12]
  remaining binding at 10 µM: 100%
[13]
  remaining binding at 10 µM: 75%
[14]
  remaining binding at 10 µM: 97%
[15]
  remaining binding at 10 µM: 95%
[16]
  remaining binding at 10 µM: 100%
[17]
  remaining binding at 10 µM: 100%
[18]
  remaining binding at 10 µM: 100%
[19]; 10 uM
  Antagonism: 8.9
[19]; 12.5 uM
  Agonism: 0.9
[20]; 10 uM
  Antagonism: −11.7
[20]; 12.5 uM
  Agonism: 0.8
[21]
  remaining binding at 10 µM: 100%
[22]; 10 uM
  Antagonism: 0.1
[22]; 12.5 uM
  Agonism: 0.6
[23]; 10 uM
  Antagonism: 1.6
[23]; 12.5 uM
  Agonism: 1.4
[24]
  remaining binding at 10 µM: 100%
[25]; 10 uM
  Antagonism: 11.4
[25]; 12.5 uM
  Agonism: −0.5
[26]
  remaining binding at 10 µM: 72%
[27]
  remaining binding at 10 µM: 100%
[28]
  remaining binding at 10 µM: 96%
[29]
  % Control: 100%
[30]
  remaining binding at 10 µM: 100%
[31]
  remaining binding at 10 µM: 100%
[32]
  remaining binding at 10 µM: 82%
[33]
  remaining binding at 10 µM: 72%
[34]; 10 uM
  Antagonism: −5.5
[34]; 12.5 uM
  Agonism: 0.3
[35]
  remaining binding at 10 µM: 67%
[36]
  remaining binding at 10 µM: 80%

From patent US20240327364A1, “THERAPEUTIC TARGETING OF GPR68 TO INDUCE FERROPTOSIS” (University Of Maryland, Baltimore, priority 2023, published 2024)
